This note sets out measurements from ChEMBL document CHEMBL1133609, “DoMCoSAR: a novel approach for establishing the docking mode that is consistent with the structure-activity relationship. Application to HIV-1 protease inhibitors and VEGF receptor tyrosine kinase inhibitors” (J Med Chem, 2000).

Sequence of Vascular endothelial growth factor receptor 2 (P35918 whole entry): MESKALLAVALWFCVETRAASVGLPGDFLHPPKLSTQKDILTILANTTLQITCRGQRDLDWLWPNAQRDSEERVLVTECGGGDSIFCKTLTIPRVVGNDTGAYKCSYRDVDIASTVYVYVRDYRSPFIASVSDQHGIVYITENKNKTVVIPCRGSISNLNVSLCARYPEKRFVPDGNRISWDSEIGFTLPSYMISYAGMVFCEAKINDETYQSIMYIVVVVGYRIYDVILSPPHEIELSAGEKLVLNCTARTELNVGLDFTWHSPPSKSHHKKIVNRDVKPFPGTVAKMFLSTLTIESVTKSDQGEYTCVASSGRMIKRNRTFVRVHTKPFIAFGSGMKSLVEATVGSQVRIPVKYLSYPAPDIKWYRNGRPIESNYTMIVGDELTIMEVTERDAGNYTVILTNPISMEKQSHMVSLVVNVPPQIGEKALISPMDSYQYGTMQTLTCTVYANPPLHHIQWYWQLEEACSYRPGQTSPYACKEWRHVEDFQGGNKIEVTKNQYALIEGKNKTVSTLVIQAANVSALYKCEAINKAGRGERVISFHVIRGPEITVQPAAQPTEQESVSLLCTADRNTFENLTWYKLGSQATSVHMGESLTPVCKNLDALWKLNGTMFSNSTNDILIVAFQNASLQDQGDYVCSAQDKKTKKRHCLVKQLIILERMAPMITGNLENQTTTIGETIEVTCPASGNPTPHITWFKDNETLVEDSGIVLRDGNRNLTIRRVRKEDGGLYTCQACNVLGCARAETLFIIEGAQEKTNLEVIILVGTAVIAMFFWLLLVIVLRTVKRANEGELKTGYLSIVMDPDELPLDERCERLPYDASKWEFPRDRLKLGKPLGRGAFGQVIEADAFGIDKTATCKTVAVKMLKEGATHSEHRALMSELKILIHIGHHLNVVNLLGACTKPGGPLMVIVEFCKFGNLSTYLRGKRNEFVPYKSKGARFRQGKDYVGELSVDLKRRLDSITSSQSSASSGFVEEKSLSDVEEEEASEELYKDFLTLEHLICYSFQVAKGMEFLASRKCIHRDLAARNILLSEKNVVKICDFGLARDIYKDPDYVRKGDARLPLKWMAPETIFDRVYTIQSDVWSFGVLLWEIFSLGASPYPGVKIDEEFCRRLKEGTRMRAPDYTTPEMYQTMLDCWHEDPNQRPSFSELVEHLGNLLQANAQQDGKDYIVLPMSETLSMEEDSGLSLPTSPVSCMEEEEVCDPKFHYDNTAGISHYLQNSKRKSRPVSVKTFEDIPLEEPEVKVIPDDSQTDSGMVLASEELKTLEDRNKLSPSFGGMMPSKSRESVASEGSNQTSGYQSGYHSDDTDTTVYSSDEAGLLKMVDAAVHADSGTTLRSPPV

The first assay addresses Vascular endothelial growth factor receptor 2 (Mus musculus, UniProt P35918). The assay is described as follows: Inhibitory activity against vascular endothelial growth factor receptor 2 (FLK1).
In general, IC50 refers to the point on the concentration scale where inhibition reaches its midpoint. High values mean weaker potency, low ones greater potency. In turn, `O=C1Nc2ccccc2/C1=C\c1cc(Br)cs1` showed an IC50 of 1000 µM.

In turn, `CCc1ccc(/C=C2/C(=O)Nc3ccccc32)s1` had an IC50 of 3.39 µM. This IC50 is about 290-fold lower than that of the compound before.

For the compound `Cn1cc(Cl)c(/C=C2/C(=O)Nc3ccccc32)n1`, the IC50 was 1000 µM. This IC50 is about 290-fold higher than that of the compound before. Same read-out and setting: next, `CC(C)c1cc(/C=C2/C(=O)Nc3ccccc32)cc(C(C)C)c1O`: 8.51 µM; `O=C1Nc2ccccc2/C1=C\c1ccc(N2CCCC2)cc1`: 3.02 µM; `CCOC(=O)c1c(C)[nH]c(/C=C2/C(=O)Nc3ccccc32)c1C`: 0.0708 µM.

Consider `COc1ccc(/C=C2/C(=O)Nc3ccccc32)cc1C(C)(C)C`, for which the IC50 is 1000 µM. On the same count and under the same terms, for `O=C1Nc2ccccc2/C1=C\c1ccc(O)cc1` the value was 2.69 µM. `CN(C)c1ccc(/C=C2/C(=O)Nc3cc(F)ccc32)cc1` gave an IC50 of 4.57 µM. The same measure, in the same setting: for `Cc1cc(C)c(/C=C2/C(=O)Nc3cc(F)ccc32)[nH]1` the value was 0.708 µM; for `Cc1c[nH]c(/C=C2/C(=O)Nc3ccccc32)c1C`, 2.69 µM.

With `CN(C)c1ccc(/C=C2/C(=O)Nc3ccccc32)cc1`, the IC50 was 0.794 µM. `O=C1Nc2ccccc2/C1=C\c1ccco1` gave an IC50 of 1000 µM. With `C/C(=C1\C(=O)Nc2ccccc21)c1ccc(N2CCCCC2)cc1`, the IC50 was 1000 µM. Still for that read-out and setting: next, `O=CN1CCN(c2ccc(/C=C3\C(=O)Nc4ccccc43)cc2)CC1`: 5.13 µM; `CCc1c(C)[nH]c(/C=C2/C(=O)Nc3ccccc32)c1C`: 1000 µM; `O=C1Nc2ccccc2/C1=C\c1ccc(Br)cc1`: 1000 µM. Still for that read-out and setting: next, `COc1ccc(/C=C2/C(=O)Nc3ccccc32)cc1`: 7.59 µM; `CN1C(=O)/C(=C/c2ccc(Br)cc2)c2ccccc21`: 1000 µM; `Cc1c[nH]c(/C=C2/C(=O)Nc3ccccc32)c1CCC(O)O`: 0.398 µM.

As for `CCc1c(/C=C2/C(=O)Nc3ccccc32)[nH]c(C)c1C`, the 50% inhibitory concentration (IC50) is 0.141 µM. On the same count and under the same terms, for `Cn1cccc1/C=C1/C(=O)Nc2ccccc21` the value was 20.4 µM.

For `O=C1Nc2ccccc2/C1=C\c1n[nH]cc1Cl`, it took 7.41 µM to reach half-maximal inhibition (IC50).

The compound `O=C1Nc2ccccc2/C1=C\c1ccc(N2CCOCC2)cc1` showed an IC50 of 2.51 µM. Still for that read-out and setting: next, `CC(C)(C)c1cc(/C=C2/C(=O)Nc3ccccc32)cc(Br)c1O`: 46.8 µM. The same measure, in the same setting: next, `O=C1Nc2cc(F)ccc2/C1=C\c1ccc[nH]1`: 0.708 µM; `CN(C)c1ccc(/C=C2/C(=O)N(C)c3ccccc32)cc1`: 22.4 µM. Still for that read-out and setting: next, `CCOC(=O)c1c[nH]c(/C=C2/C(=O)Nc3ccccc32)c1C`: 0.182 µM. The compound `CC(C)(C)c1cc(/C=C2/C(=O)Nc3ccccc32)cc(C(C)(C)C)c1O` gave an IC50 of 8.32 µM. In the case of `O=C1Nc2ccccc2/C1=C\c1ccc(N2CCCCC2)cc1`, the IC50 was 4.47 µM.

`CSc1ccc(/C=C2/C(=O)Nc3ccccc32)s1` gave an IC50 of 2.34 µM. Still for that read-out and setting: next, `COc1ccc(/C=C2\C(=O)Nc3ccc(Cl)cc32)cc1C(C)(C)C`: 1000 µM. The same measure, in the same setting: next, `CSc1ccc(/C=C2\C(=O)Nc3cccc(C)c32)s1`: 1000 µM; `COc1c(Br)cc(/C=C2\C(=O)Nc3ccc(Cl)cc32)cc1C(C)(C)C`: 1000 µM; `O=C1Nc2ccc(Br)cc2/C1=C/c1ccc(N2CCOCC2)cc1`: 50.1 µM. Same read-out and setting: for `O=C1Nc2ccc([N+](=O)[O-])cc2/C1=C/c1ccc[nH]1` the value was 1000 µM; for `O=CN1CCN(c2ccc(/C=C3\C(=O)Nc4ccc(Br)cc43)cc2)CC1`, 100 µM.

A further assay concerns the target Human immunodeficiency virus type 1 protease (Human immunodeficiency virus 1, UniProt Q72874). The assay is described as follows: Inhibitory activity against HIV-1 protease.
As to `CC(C)(C)OC(=O)N[C@@H](Cc1ccccc1)[C@@H](O)C[C@@H](Cc1ccccc1)C(=O)N[C@@H]1c2ccccc2OC[C@H]1O`, the IC50 was 0.00018 µM. Still for that read-out and setting: next, `CC(C)(C)OC(=O)N[C@@H](Cc1ccccc1)[C@@H](O)C[C@@H](Cc1ccccc1)C(=O)N[C@@H]1c2ccccc2[C@@H](O)[C@H]1O`: 0.0001 µM. `Cc1ccc(C[C@H](C[C@H](O)[C@H](Cc2ccccc2)NC(=O)OC(C)(C)C)C(=O)N[C@@H]2c3ccccc3C[C@H]2O)cc1` showed an IC50 of 0.00029 µM.

On to `CC(C)(C)OC(=O)N[C@@H](Cc1ccccc1)[C@@H](O)C[C@@H](CSc1ccccc1)C(=O)N[C@@H]1c2ccccc2C[C@H]1O`, for which the IC50 was 0.00025 µM. The IC50 values of the last two compounds are within 1.5-fold of each other.

In the case of `CC(C)(C)OC(=O)N[C@@H](Cc1ccccc1)[C@@H](O)C[C@@H](Cc1ccccc1)C(=O)N[C@H]1CCc2ccccc21`, it took 0.0343 µM to reach half-maximal inhibition (IC50). Still for that read-out and setting: next, `CC(C)(C)OC(=O)N[C@@H](Cc1ccccc1)[C@@H](O)C[C@@H](Cc1ccc(C(F)(F)F)cc1)C(=O)N[C@@H]1c2ccccc2C[C@H]1O`: 0.00026 µM; `CC(C)(C)OC(=O)N[C@@H](Cc1ccccc1)[C@@H](O)C[C@@H](Cc1ccccc1)C(=O)N[C@@H]1c2ccccc2CC[C@H]1O`: 0.0007 µM.

Compound `CC(C)(C)OC(=O)N[C@@H](Cc1ccccc1)[C@@H](O)C[C@@H](Cc1ccc(N)cc1)C(=O)N[C@@H]1c2ccccc2C[C@H]1O` had an IC50 of 0.00031 µM. Same read-out and setting: next, `CC(C)(C)OC(=O)N[C@@H](Cc1ccccc1)[C@@H](O)C[C@@H](Cc1ccccc1)C(=O)N[C@@H]1c2ccccc2C[C@H]1O`: 0.00025 µM; `CC(C)(C)OC(=O)N[C@@H](Cc1ccccc1)[C@@H](O)C[C@@H](CC(=O)c1ccccc1)C(=O)N[C@@H]1c2ccccc2C[C@H]1O`: 0.00542 µM; `CC(C)(C)OC(=O)N[C@@H](Cc1ccccc1)[C@@H](O)C[C@@H](Cc1ccc(O)cc1)C(=O)N[C@@H]1c2ccccc2C[C@H]1O`: 0.00016 µM. Same read-out and setting: for `CC(C)(C)OC(=O)N[C@@H](Cc1ccccc1)[C@@H](O)CCC(=O)N[C@@H]1c2ccccc2C[C@H]1O` the value was 2.94 µM; for `CC(C)(C)OC(=O)N[C@@H](Cc1ccccc1)[C@@H](O)C[C@@H](Cc1ccc(C(C)(C)C)cc1)C(=O)N[C@@H]1c2ccccc2C[C@H]1O`, 0.00017 µM; for `CC(C)(C)OC(=O)N[C@@H](Cc1ccccc1)[C@@H](O)C[C@@](C)(Cc1ccccc1)C(=O)N[C@@H]1c2ccccc2C[C@H]1O`, 0.00771 µM. The same measure, in the same setting: for `C=CC[C@H](C[C@H](O)[C@H](Cc1ccccc1)NC(=O)OC(C)(C)C)C(=O)N[C@@H]1c2ccccc2C[C@H]1O` the value was 0.0275 µM; for `COC(=O)[C@@H]1Cc2ccccc2[C@H]1NC(=O)[C@H](Cc1ccccc1)C[C@H](O)[C@H](Cc1ccccc1)NC(=O)OC(C)(C)C`, 0.0662 µM. `CC(C)(C)OC(=O)N[C@@H](Cc1ccccc1)[C@@H](O)C[C@@H](Cc1ccncc1)C(=O)N[C@@H]1c2ccccc2C[C@H]1O` showed an IC50 of 0.00053 µM. Against the preceding compound, the IC50 is about 120-fold lower. Same read-out and setting: for `CC(C)(C)OC(=O)N[C@@H](Cc1ccccc1)[C@@H](O)C[C@@H](Cc1c(F)c(F)c(F)c(F)c1F)C(=O)N[C@@H]1c2ccccc2C[C@H]1O` the value was 0.0006 µM; for `CC(C)(C)OC(=O)N[C@@H](Cc1ccccc1)[C@@H](O)C[C@@H](Cc1ccc([N+](=O)[O-])cc1)C(=O)N[C@@H]1c2ccccc2C[C@H]1O`, 0.00027 µM; for `CC(C)(C)OC(=O)N[C@@H](Cc1ccccc1)[C@@H](O)C[C@@H](C/C=C/c1ccccc1)C(=O)N[C@@H]1c2ccccc2C[C@H]1O`, 0.00023 µM. With `CC(C)(C)OC(=O)N[C@@H](Cc1ccccc1)[C@@H](O)C[C@@H](Cc1ccc(I)cc1)C(=O)N[C@@H]1c2ccccc2C[C@H]1O`, half-maximal inhibition (IC50) required 0.000719 µM. Same read-out and setting: for `CC(C)(C)OC(=O)N[C@@H](Cc1ccccc1)[C@@H](O)C[C@@H](Cc1ccccc1)C(=O)N[C@@H]1C=CC[C@H]1O` the value was 0.00953 µM; for `CC(C)(C)OC(=O)N[C@@H](Cc1ccccc1)[C@@H](O)C[C@@H](CCCc1ccccc1)C(=O)N[C@@H]1c2ccccc2[C@@H](O)[C@H]1O`, 0.00019 µM; for `CC(C)(C)OC(=O)N[C@@H](Cc1ccccc1)[C@@H](O)C[C@@H](Cc1ccccc1)C(=O)N[C@@H]1CCCC[C@H]1O`, 0.122 µM. On the same count and under the same terms, for `CC(C)(C)OC(=O)N[C@@H](Cc1ccccc1)[C@@H](O)C[C@@H](Cc1ccccc1)C(=O)N[C@H]1c2ccccc2OC[C@@H]1O` the value was 0.0406 µM.
